Marks after values point to notes of the source that are not given here.
Columns and labels:
[1] = tested on: MMP-3; assay: Gene expression of MMP-3 in human dermal fibroblasts treated with H2O2 (real-time PCR); assay type: cell-based; settings: for RQ (relative quantity of mRNA) MMP-3 / % Inhibition of the level of mRNA expression MMP-3: 3 μM; for RQ (relative quantity of mRNA) MMP-3: senescent fibroblasts stimulated with H2O2, non-treated control = 1; for % Inhibition of the level of mRNA expression MMP-3: vs H2O2 alone
Description: (§1) To evidence the activity of the compounds of general formula (I) against skin ageing and against inflammation, the effect of these compounds was measured on the gene expression of MMP-1, MMP-3 and IL8 in human dermal fibroblasts treated with H2O2, thereby mimicking the process of cellular senescence. The effect of these compounds of general formula (I) was also measured on the synthesis of hyaluronic acid and on hyaluronidase activity. The stimulation of the synthesis of hyaluronic acid also allows skin hydration to be improved and/or restored (Bissett D L. J. Cosmet. Dermatol. 2006 Dec. 5(4): 309-15. Glucosamine: an ingredient with skin and other benefits).
(§2) Human dermal fibroblasts (isolated from discarded operative skin) were cultured in DMEM culture medium+10% FCS. The cells were pre-treated with vitamin C and the compound to be tested for 16 h at 37° C. and then stimulated with H2O2. The cells were then replaced in DMEM with vitamin C and dioctadeca-9,12-dienoate of (9Z,9′Z,12Z,12′Z)-2-(2,2-dimethyl-1,3-dioxolan-4-yl)-5-oxo-2,5-dihydrofuran-3,4-diyl. 72 hours after ending of stress, the fibroblasts entered into senescence: the senescent fibroblasts no longer proliferate but remain metabolically active (Hayflick, J. Invest. Dermatol., 73; 8-14, 1979). The cells were then lysed with the lysis buffer of the RNeasy® kit (QIAGEN).
(§3) The extracted RNAs were converted to complementary DNA following the indications of the Quantitect Reverse Transcription kit by Qiagen. Real-time PCR analyses were conducted using an iQ cycler fluorescence thermocycler (BIO-RAD).
(§4) The level of expression of the mRNAs coding for MMP-1, MMP-3, IL8 was analyzed using the real-time PCR technique. To normalize the level of expression of the gene of interest, the analysis strategy developed by Vandesompela et al., Genome Biol. 3: RESEARCH0034 (2002) was chosen. […] In our model, the three tested reference genes were the following: β-actin (Human β-actin), GAPDH (Human glyceraldehyde-3-phosphate dehydrogenase) and YWHAZ (Tyrosine-3-monooxygenase, tryptopgan-5-monooxygenase activation protein zeta polypeptide).
(§5) The first step normalizes the Ct values obtained for the gene of interest in relation to the Ct values obtained for the reference gene, for each experimental condition.
(§6) The following was therefore calculated: ΔCt=Ctgene of interest−Ctreference gene
(§7) The second step of the calculation determines the variation in the number of copies of the gene of interest during treatment. To do so ΔΔCt is calculated: ΔΔCt=ΔCtnon-treated NHF−ΔCttreated NHF
(§8) For the non-treated control, this QR is therefore equal to 1. It is then possible to calculate an induction or inhibition factor of the gene of interest compared with this control.
(§9) Statistical analysis was performed using a test called “one-way ANOVA”. Variance analysis using the Dunnett test then allows the comparing, for each of the analyzed genes, of the ΔCt values of normal adult fibroblasts with the compounds in the presence of H2O2 in both cases. This test then gives the “p value” characterizing the significance of the results obtained for both conditions The degree of significance was established as follows: • significant for p<0.05(*) • very significant for p<0.005(**) • highly significant for p<0.001(***) • non-significant for p>0.05. […]
(§10) It is also possible to calculate percentage inhibition of the level of expression of the different mRNAs by the active ingredients to be evaluated, using the formula: […]

[2] = tested on: keratinocytes HaCaT; assay: Assay of the synthesis of hyaluronic acid in HaCaT keratinocytes (ELISA); assay type: cell-based, human; settings: for Percentage stimulation of the synthesis of hyaluronic acid: 48 h, vs control
Description: The keratinocytes HaCaT are cultured in DMEM culture medium+10% FCS. The cells are treated with the active ingredients to be tested (Table 1) for 48 h at 37° C. The synthesized hyaluronic acid (HA) is assayed in the culture medium using an ELISA type kit (Echelon®).
The percentage activity was determined as follows • percentage variation compared with the control %p/C=([HA]active ingred./[HA]control×100)−100 4.4.2 Results of the Assay of Hyaluronic Acid on the Line of Human Keratinocytes HaCaT

[3] = tested on: IL-8; assay: Gene expression of IL8 in human dermal fibroblasts treated with H2O2 (real-time PCR); assay type: cell-based; settings: for RQ (relative quantity of mRNA) IL-8 / % Inhibition of the level of mRNA expression IL-8: 3 μM; for RQ (relative quantity of mRNA) IL-8: senescent fibroblasts stimulated with H2O2, non-treated control = 1; for % Inhibition of the level of mRNA expression IL-8: vs H2O2 alone
Description: as §1, §2, §3, §4, §5, §6, §7, §8, §9, §10

[4] = tested on: MMP-1; assay: Gene expression of MMP-1 in human dermal fibroblasts treated with H2O2 (real-time PCR); assay type: cell-based; settings: for RQ (relative quantity of mRNA) MMP-1 / % Inhibition of the level of mRNA expression MMP-1: 3 μM; for RQ (relative quantity of mRNA) MMP-1: senescent fibroblasts stimulated with H2O2, non-treated control = 1; for % Inhibition of the level of mRNA expression MMP-1: vs H2O2 alone
Description: as §1, §2, §3, §4, §5, §6, §7, §8, §9, §10

[5] = tested on: Human dermal papilla cells; assay: In vitro stimulation of the proliferation of dermal papilla cells (BrdU incorporation); assay type: cell-based; settings: 12.5 μM; 60 h; best activity
Description: Human dermal papilla cells (Promocell) were placed in culture and held in early passage culture in DMEM medium supplemented with 10% FCS. They were then seeded in a 96-well plate in DMEM medium supplemented with 10% FCS for 12 h. The culture medium was replaced by serum-free DMEM medium then by DMEM supplemented with 1% FCS and molecules 1, 2, 3 and 4 at the different tested concentrations After incubation for 60 h, cell proliferation was evaluated by incorporation of BrdU.
The diagrams in appended FIG. 1 show the increase in BrdU incorporation and the stimulated cellular proliferation of the cells in the presence of the different molecules (as a percent of the control).

SMILES	RQ (relative quantity of mRNA) MMP-3 [1]	% Inhibition of the level of mRNA expression MMP-3 [1]	Percentage stimulation of the synthesis of hyaluronic acid ([2]; 30 μM)	Percentage stimulation of the synthesis of hyaluronic acid ([2]; 300 μM)	Effect on the synthesis of hyaluronic acid ([2]; 30 and 300 μM)	RQ (relative quantity of mRNA) IL-8 [3]	% Inhibition of the level of mRNA expression IL-8 [3]	RQ (relative quantity of mRNA) MMP-1 [4]	% Inhibition of the level of mRNA expression MMP-1 [4]	Inhibition of MMP3 expression compared with ascorbic acid [1]	Percentage stimulation of the synthesis of hyaluronic acid ([2]; 2 μM)	Percentage stimulation of the synthesis of hyaluronic acid ([2]; 20 μM)	Proliferation of the cells of the dermal papilla (percent of the control) [5]	Inhibition of IL-8 expression compared with ascorbic acid [3]	Inhibition of MMP1 expression compared with ascorbic acid [4]
O=C1O[C@H]([C@@H](O)CO)C(O)=C1O [Ascorbic acid, ascorbic acid]	3.5	50* %	9%	19%	no effect	1.2	92*** %	3.2	18%	–	–	–	–	–	–
CCCCC/C=C\C/C=C\CCCCCCCC(=O)OC1=C(OC(=O)CCCCCCC/C=C\C/C=C\CCCCC)C(C2COC(C)(C)O2)OC1=O (stereo not drawn) [Molecule 1, diactodeca-9,12-dienoate of (9Z,9′Z,12Z,12′Z)-2-(2,2-dimethyl-1,3-dioxolan-4-yl)-5-oxo-2,5-dihydrofuran-3,4-diyl]	1.9	81*** %	–	–	–	0.9	102*** %	0.9	105*** %	more substantially inhibits the expression of MMP1, MMP3 and IL-8 than ascorbic acid	132%	70%	169%	more substantially inhibits the expression of MMP1, MMP3 and IL-8 than ascorbic acid	more substantially inhibits the expression of MMP1, MMP3 and IL-8 than ascorbic acid
